The NIST ThermoML archive (doi:10.1016/j.jct.2016.08.010)
Numbers after ± are expanded uncertainties.

Columns and labels:
[1] = molar heat capacity at constant pressure; xn = mol fraction of the nth substance listed; conditions: 100 kPa, Liquid, Small sample (50 mg) DSC
[2] = excess molar enthalpy (molar enthalpy of mixing); xn = mol fraction of the nth substance listed; conditions: 298.15 K, 100 kPa, Liquid, Power-compensation calorimetry

CCCCn1cc[n+](C)c1C.F[B-](F)(F)F [1-butyl-2,3-dimethylimidazolium tetrafluoroborate] + CCCCn1cc[n+](C)c1.F[B-](F)(F)F
molar heat capacity at constant pressure [J/K/mol], [1]
Conditions	293.15 K	298.15 K	303.15 K	308.15 K
x1 = 0.0944	372.33 ± 8	374.56 ± 8	376.3 ± 8	378.14 ± 8.1
x1 = 0.1139	374.5 ± 8	376.61 ± 8	378.27 ± 8.1	379.93 ± 8.1
x1 = 0.1685	380.51 ± 8.1	382.42 ± 8.2	383.87 ± 8.2	385.43 ± 8.2
x1 = 0.1964	383.54 ± 8.2	385.39 ± 8.2	386.73 ± 8.3	388.21 ± 8.3
x1 = 0.2219	386.3 ± 8.2	388.04 ± 8.3	389.27 ± 8.3	390.78 ± 8.3
x1 = 0.2761	391.8 ± 8.4	393.45 ± 8.4	394.59 ± 8.4	396.01 ± 8.5
x1 = 0.325	396.42 ± 8.5	397.97 ± 8.5	399.09 ± 8.5	400.41 ± 8.6
x1 = 0.3616	399.58 ± 8.5	401.14 ± 8.6	402.27 ± 8.6	403.61 ± 8.6
x1 = 0.4192	404.04 ± 8.6	405.54 ± 8.7	406.68 ± 8.7	408.07 ± 8.7
x1 = 0.4769	407.66 ± 8.7	409.23 ± 8.7	410.42 ± 8.8	411.83 ± 8.8
x1 = 0.5228	410.01 ± 8.8	411.58 ± 8.8	412.83 ± 8.8	414.29 ± 8.8
x1 = 0.5749	412.12 ± 8.8	413.7 ± 8.8	415.09 ± 8.9	416.68 ± 8.9
x1 = 0.6325	413.66 ± 8.8	415.36 ± 8.9	416.86 ± 8.9	418.94 ± 8.9
x1 = 0.6877	414.45 ± 8.8	416.32 ± 8.9	418.24 ± 8.9	420.31 ± 9
x1 = 0.7386	414.74 ± 8.9	416.82 ± 8.9	419.32 ± 8.9	421.29 ± 9
x1 = 0.7922	414.58 ± 8.8	416.97 ± 8.9	419.35 ± 8.9	421.84 ± 9
x1 = 0.8479	414.36 ± 8.8	416.75 ± 8.9	419.41 ± 9	422.19 ± 9
x1 = 0.8832	413.81 ± 8.8	416.53 ± 8.9	419.16 ± 8.9	421.93 ± 9
x1 = 1	413.03 ± 8.8	416.01 ± 8.9	418.84 ± 8.9	421.7 ± 9

[2]
Conditions	excess molar enthalpy [kcal/mol]
x1 = 0.0861	0.00327 ± 0.000215
x1 = 0.1386	0.00523 ± 0.000239
x1 = 0.1972	0.00734 ± 0.000263
x1 = 0.2455	0.00889 ± 0.000287
x1 = 0.2945	0.0104 ± 0.000311
x1 = 0.3428	0.0114 ± 0.000335
x1 = 0.3917	0.0121 ± 0.000359
x1 = 0.4457	0.0125 ± 0.000359
x1 = 0.5019	0.0125 ± 0.000359
x1 = 0.5637	0.0117 ± 0.000335
x1 = 0.6097	0.0109 ± 0.000335
x1 = 0.6637	0.00963 ± 0.000311
x1 = 0.7076	0.00858 ± 0.000287
x1 = 0.7611	0.00691 ± 0.000263
x1 = 0.8042	0.00564 ± 0.000239
x1 = 0.8462	0.00437 ± 0.000215
x1 = 0.8827	0.00325 ± 0.000215
x1 = 0.9144	0.0023 ± 0.000203
